In patent US20250296971A1, “GASTRIC INHIBITORY PEPTIDE RECEPTOR LIGANDS” (priority 2021, published 2025):
*1 amine or outer side, *2 acyl side, *3 side chain or, on linkers, in order; H or OH if unused. Where a SMILES comes first, the peptide text is derived from it. Bridges are numbered along the chain shown (N, C = ends). [ ]: non-standard residue; d: D form. Trp(5-Cl) = N[C@@H](Cc1c[nH]c2ccc(Cl)cc12)C(=O)O; Pyridine(2,6-diCH2) = c1cc(C[*:1])nc(C[*:2])c1; Phe(3-Cl) = N[C@@H](Cc1cccc(Cl)c1)C(=O)O; 1Nal = N[C@@H](Cc1cccc2ccccc12)C(=O)O; mXylylene = c1cc(C[*:1])cc(C[*:2])c1; X6 = c1cc(CSCCN[*:2])nc(C[*:1])c1; Cya = N[C@@H](CS(=O)(=O)O)C(=O)O; Hyp = O=C(O)[C@@H]1C[C@@H](O)CN1; Suc = O=C(CCC(=O)[*:2])[*:1]; hLeu = CC(C)CC[C@H](N)C(=O)O; Thp = NC1(C(=O)O)CCOCC1; Aib = CC(C)(N)C(=O)O

target: T1, GIPR (CHO-K1-hGIPR cells) (Homo sapiens, UniProt P48546); assay: FACS binding assay; conditions: competition with 20 nM GIP-057, 4° C. for 1 hour, read-out: pIC50 Category (converted)
T1 construct: host or cells: CHO-K1
T1 sequence (P48546 22-466): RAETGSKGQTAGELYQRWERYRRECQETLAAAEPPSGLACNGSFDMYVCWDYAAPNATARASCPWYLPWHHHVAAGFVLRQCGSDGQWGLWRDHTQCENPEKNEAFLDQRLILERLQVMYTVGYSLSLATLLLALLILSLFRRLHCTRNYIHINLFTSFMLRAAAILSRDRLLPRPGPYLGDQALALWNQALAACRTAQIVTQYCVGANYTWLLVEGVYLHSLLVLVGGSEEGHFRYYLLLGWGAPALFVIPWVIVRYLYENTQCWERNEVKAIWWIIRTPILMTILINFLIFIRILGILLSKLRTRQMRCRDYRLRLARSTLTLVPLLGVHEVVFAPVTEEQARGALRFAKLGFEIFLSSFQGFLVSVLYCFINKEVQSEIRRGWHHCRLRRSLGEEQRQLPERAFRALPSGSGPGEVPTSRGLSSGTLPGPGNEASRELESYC
Summary of the method: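 Steps: detach CHO-K1-hGIPR cells (Accutase); wash in PBS/1% FCS; adjust to 500.000 cells per mL; wash ice-cold; incubate APC-streptavidin 1 μg/mL, 30 min on ice; wash twice; acquire on flow cytometer; fit MFI-concentration data with a four-parameter logistic model.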

IC50, 100 to 794 nM:
CC[C@H](C)[C@@H]1NC(=O)[C@H](CC(C)C)NC(=O)C(C)(C)NC(=O)[C@@H](NC(=O)[C@H](CCC(C)C)NC(=O)[C@H](CCC(=O)O)NC(=O)[C@@H]2CCCN2C(=O)[C@H](Cc2cccc3ccccc23)NC(=O)[C@H](Cc2c[nH]c3ccccc23)NC(=O)[C@H](CC(=O)O)NC(C)=O)CSCc2cccc(c2)CSC[C@@H](C(N)=O)NC1=O [GIP-315, Ac-Asp-Trp-1Ni-Pro-Glu-Hle-[Cys(3MeBn)-Aib-Leu-Ile-Cys]-NH2] (Ac-DW[1Nal]PE[hLeu]C[Aib]LIC-NH2; linker 7-11 via mXylylene)
CC[C@H](C)[C@@H]1NC(=O)[C@H](CC(C)C)NC(=O)C(C)(C)NC(=O)[C@@H](NC(=O)[C@@H](CC(C)C)NC(=O)[C@H](CCC(=O)O)NC(=O)[C@@H]2C[C@@H](O)CN2C(=O)[C@H](Cc2c[nH]c3ccc(Cl)cc23)NC(=O)CNC(=O)[C@H](CS(=O)(=O)O)NC(C)=O)CSCc2cccc(n2)CSCCNC1=O [GIP-316, Ac-Cya-Gly-5Clw-Hyp-Glu-leu-[Cys(2Lut)-Aib-Leu-Ile-AET]] (Ac-[Cya]G[Trp(5-Cl)][Hyp]E[dL]C[Aib]LI; linker 7-C via X6)
CC[C@H](C)[C@@H]1NC(=O)[C@H](CC(C)C)NC(=O)[C@H](C)NC(=O)[C@@H](NC(=O)[C@H](CC(C)C)NC(=O)[C@H](CCC(=O)O)NC(=O)[C@@H]2CCCN2C(=O)[C@H](Cc2c[nH]c3ccccc23)NC(=O)[C@H](Cc2c[nH]c3ccccc23)NC(=O)[C@H](CS(=O)(=O)O)NC(C)=O)CSCc2cccc(c2)CSC[C@@H](C(N)=O)NC1=O [GIP-317, Ac-Cya-Trp-Trp-Pro-Glu-Leu-[Cys(3MeBn)-Ala-Leu-Ile-Cys]-NH2] (Ac-[Cya]WWPELCALIC-NH2; linker 7-11 via mXylylene)
CC[C@H](C)[C@@H]1NC(=O)[C@H](CC(C)C)NC(=O)[C@@H](C)NC(=O)[C@@H](NC(=O)[C@@H](CC(C)C)NC(=O)[C@H](CCC(=O)O)NC(=O)[C@@H]2CCCN2C(=O)[C@H](Cc2c[nH]c3ccccc23)NC(=O)[C@H](Cc2c[nH]c3ccccc23)NC(=O)CCC(=O)O)CSCc2cccc(c2)CSC[C@@H](C(N)=O)NC1=O [GIP-318, HO-Succinyl-Trp-Trp-Pro-Glu-leu-[Cys(3MeBn)-ala-Leu-Ile-Cys]-NH2] (Suc-WWPE[dL]C[dA]LIC-NH2; linker 6-10 via mXylylene)
CC[C@H](C)[C@@H]1NC(=O)[C@H](CC(C)C)NC(=O)C(C)(C)NC(=O)[C@@H](NC(=O)[C@H](CC(C)C)NC(=O)[C@H](CCC(=O)O)NC(=O)[C@@H]2C[C@@H](O)CN2C(=O)[C@H](Cc2c[nH]c3ccccc23)NC(=O)[C@H](Cc2c[nH]c3ccccc23)NC(=O)CCC(=O)O)CSCc2cccc(c2)CSC[C@@H](C(N)=O)NC1=O [GIP-319, HO-Succinyl-Trp-Trp-Hyp-Glu-Leu-[Cys(3MeBn)-Aib-Leu-Ile-Cys]-NH2] (Suc-WW[Hyp]ELC[Aib]LIC-NH2; linker 6-10 via mXylylene)
CC[C@H](C)[C@@H]1NC(=O)[C@H](CC(C)C)NC(=O)C2(CCOCC2)NC(=O)[C@@H](NC(=O)[C@@H](CC(C)C)NC(=O)[C@H](CCC(=O)O)NC(=O)[C@@H]2C[C@@H](O)CN2C(=O)[C@H](Cc2cccc(Cl)c2)NC(=O)[C@H](Cc2c[nH]c3ccccc23)NC(=O)[C@H](CC(=O)O)NC(C)=O)CSCc2cccc(n2)CSC[C@@H](C(N)=O)NC1=O [GIP-320, Ac-Asp-Trp-Mcf-Hyp-Glu-leu-[Cys(2Lut)-Thp-Leu-Ile-Cys]-NH2] (Ac-DW[Phe(3-Cl)][Hyp]E[dL]C[Thp]LIC-NH2; linker 7-11 via Pyridine(2,6-diCH2))
